Test results from patent publication US20240192237A1 (curantis UG, priority 2021, published 2024).

Assays:
[1] = test system: patients with schizophrenia; experiment: PANSS assessment in clinical trials CBD-CT1 and CBD-PT; assay type: in vivo; settings: for PANSS Positive Score: baseline 22.9 ± 4.3; for PANSS Negative Score: baseline 22.5 ± 6.0; for PANSS General Score: baseline 45.0 ± 8.2; for PANSS Total Score: baseline 90.4 ± 14.1
Excerpt: The Ethics Committee of the Faculty of Medicine of University of Cologne approved the clinical trial with application number 00-074 on Aug. 6, 2000.
All randomized patients complied with all inclusion and exclusion criteria: age between 18 and 50, male and female, persisting inpatient hospitalization, specific DSM-IV diagnoses, initial Brief Psychiatric Rating Scale (BPRS) score≥36, understanding of the study objectives and the course of the study, legal capacity, no pregnancy or lactation phase, reliable contraception.
(§1) CBD was administered as an oral dose in a capsule formulation. The dose was increased during the first week from 200 mg/d to 800 mg/d (4×200 mg) and remained at this level for the rest of the study period. Due to serious unwanted effects, the dose could be reduced irreversibly to 600 mg/d starting with day 15. […] Dose applications, blood sampling, and assessment of PANSS followed the time schedule presented below. Additional treatment with 7.5 mg lorazepam per day during the whole study period was permitted.
On 28 Jul. 2005 this clinical trial with application number 04-153 was approved by the Ethics Committee of the Faculty of Medicine of University of Cologne.
(§2) Eighteen patients with a diagnosis of schizophrenia or schizophreniform disorder should be included in this trial per protocol. Because dropouts had to be replaced by a new patient a total number of 29 patients was randomized from February 2006 to June 2008. All randomized patients complied with all inclusion and exclusion criteria: age between 18 and 65, male and female, specific DSM-IV diagnoses, initial BPRS score≥36, no pregnancy or lactation phase, reliable contraception, no lack of accountability, no other relevant interferences, no treatment with depot-antipsychotics during the last three months, no severe internal or neurological illness, no QTc prolongation, no acute suicidality nor endangerment of others by the patient. […] Treatment lasted four weeks: the first period with two weeks of CBD or placebo treatment was followed by a second period with a two-week treatment of placebo or CBD, respectively. There was no washout period between the two treatments. […] The dose could be reduced irreversibly to 400 mg/d in case of serious unwanted effects. […] The PANSS was applied at baseline and day 14 and 28. Dose applications, blood sampling, and assessment of PANSS followed the time schedule presented below. Additional treatment with 5.0 mg lorazepam per day during the whole study period was permitted.
The Positive and Negative Syndrome Scale (PANSS) is a psychopathological scale and was developed to assess the symptom severity in patients with schizophrenia. It was first described by Kay et al. in 1987 (Kay S R, Fiszbein A, Opler L A. “The positive and negative syndrome scale (PANSS) for schizophrenia”. Schizophrenia bulletin. 1987; 13(2):261-276.) and includes 30 questions which are a combination of 18 items of the BPRS and 12 items of the Psychopathology Rating Schedule ([…]) (see Leucht S, Kane J M, Kissling W, Hamann J, Etschel E, Engel R R. “What does the PANSS mean?” Schizophrenia research. 2005; 79(2-3):231-238.) All questions are rated on a 7-point scale from 1=absence of symptoms to 7=extremely distinct symptoms. Therefore, the PANSS total score (sum score of all 30 items) can range from 30 to 210. Here applies: the lower the PANSS score the better/healthier is the patient.
The positive scale contains delusion, disorganized thoughts, hallucination, excitement, grandiosity, suspiciousness/persecution, and animosity. Blunted affect, emotional withdrawal, poor rapport, passive/apathetic social withdrawal, difficulty in abstract thinking, stereotyped thinking, lack of spontaneity, and flow of conversation are part of the negative scale. […]

[2] = CBD trough plasma concentration in clinical trials CBD-CT1 and CBD-PT (LC-MS/MS); assay type: in vivo, patients; settings: for concentration at 7 day: Day 7, mean ± SD; for concentration at 14 day: Day 14, mean ± SD
Method: as §1, with “permitted. […]” for “permitted.”
as §2, with “permitted. […]” for “permitted.”
Therefore, documentation of time points when CBD was administered and when blood samples were taken was limited and not included in the electronic data. Information on possible dose reductions e.g. due to adverse events were missing in the electronic data, too. In cooperation with the PI, time points were inputted based on standard routines on the ward: application of study medication was set to 9:00 AM, 12:30 PM, 6:30 PM, and 10:00 PM, and blood sampling was scheduled at 8:45 AM. Assessment of the PANSS was also timed to 8:45 AM. The loss of accuracy by standardizing times was considered acceptable because the time interval between doses and blood sampling is long, so small deviations would have no major impact. Information on actually applied doses or reduced doses was updated in cooperation with a member of the PI's research group. Based on notes in archived patient's case report files and other paper-based documents the electronic data was adjusted.
After consultation with the PI, these values were replaced with 0 because all patients with positive drug screening were excluded from the clinical trial according to the study protocol. Baseline values>0 may result from errors in procedure e.g. when blood samples were taken after dose application. Therefore, the replacement is considered as being equivalent to an imputation of a predose measurement which was not conducted.

[3] = both sexes, human, plasma, oral capsule 600 mg/d, cross-over with placebo

C=C(C)[C@@H]1CCC(C)=C[C@H]1c1c(O)cc(CCCCC)cc1O [CBD, cannabidiol]
PANSS Positive Score ([1]; Day 14, mean, SD 4.5, N 36): 18.9
PANSS Negative Score ([1]; Day 14, mean, SD 5.6, N 36): 19.0
PANSS General Score ([1]; Day 14, mean, SD 9.6, N 36): 38.9
PANSS Total Score ([1]; Day 14, mean, SD 17.0, N 36 (CT1 17|PT 19), oral CBD capsules 800 mg/d (CT1) or 600 mg/d (PT)): 76.9
PANSS Positive Score ([1]; Day 28, mean, SD 5.4, N 24): 16.9
PANSS Negative Score ([1]; Day 28, mean, SD 6.2, N 24): 16.1
PANSS General Score ([1]; Day 28, mean, SD 13.1, N 24): 35.9
PANSS Total Score ([1]; Day 28, mean, SD 23.2, N 24 (CT1 14|PT 10)): 68.9
CBD plasma concentration, CBD-PT ([2]; Day 21, mean ± SD, cross-over, 0 PT patients under CBD treatment per table): 4.0 ± 1.2 µg/L
concentration at 28 day ([2]; both sexes, human, plasma, oral, 600 mg/d): 2.3 ± 1 ng/mL
concentration at 7 day ([2]; both sexes, human, plasma, oral, 600 mg/d, CBD-CT1 + CBD-PT pooled (only PT measured)): 14.1 ± 9.1 ng/mL
concentration at 21 day ([2]; both sexes, human, plasma, oral, 600 mg/d, Day 21, mean ± SD, pooled (only PT measured)): 4 ± 1.2 ng/mL
concentration at 7 day [2, 3]: 14.1 ± 9.1 ng/mL
concentration at 14 day [2, 3]: 19.3 ± 8.7 ng/mL
concentration at 14 day ([2]; human, plasma, oral, CBD-CT1 + CBD-PT pooled): 35.4 ± 22.6 ng/mL
concentration at 28 day ([2]; human, plasma, oral, Day 28, mean ± SD, CBD-CT1 + CBD-PT pooled): 29.2 ± 27.8 ng/mL
concentration at 14 day ([2]; human, plasma, oral capsule 800 mg/d (titrated from 200 mg/d in first week), trough): 50.5 ± 21.2 ng/mL
concentration at 28 day ([2]; human, plasma, Day 28, mean ± SD, oral capsule 800 mg/d, trough): 42.6 ± 24.7 ng/mL
